Measurements reported in article PMC5341752, “New bipyridine gold(III) dithiocarbamate-containing complexes exerted a potent anticancer activity against cisplatin-resistant cancer cells independent of p53 status” (Oncotarget, 2016).

Columns and labels:
[1] = test system: 2780CP cells; set-up: method as in PMID 10643661; conditions: 2780CP-16 versus A2780; cited from earlier work
[2] = test system: MCF-7 cells; assay: Growth inhibition, MTT assay, MCF-7 cells; format: cell-based, human; conditions: for IC50: mean ± SEM
Description: (§1) PC3 and MCF-7 cells (2.5 × 10^3), A2780, A2780cis (4.0 × 10^3), A2780CP-16 and lung cancer cells (H460, A549, H226, H838, H157, H1975, H2122, SKLU1 and H1299) were seeded in 96-well flat-bottomed microplates (100 μL) and incubated for 24 h (to allow cell adhesion) before drug testing. The medium was then removed and replaced with fresh medium containing the gold(III) complexes (compound 1–9) to be tested at increasing concentrations (from 0.01 to 100 μM) at 37°C for 72 h. Each treatment was performed in triplicate. Cell proliferation was assayed using the MTT assay. Alternatively, L-540 cells (2.0 × 10^5/mL) were seeded in 96-well plates and treated as previously described. After treatment, cell proliferation was evaluated by the MTS assay (Promega). IC50 (i.e., the half maximal inhibitory concentration representing the concentration of a substance required for 50% in vitro inhibition) IC75 and IC90 values (Supplementary Table S1) were calculated using the CalcuSyn software (Biosoft, Ferguson, MO, USA). Dependence of activity on p53 was assessed in A2780 cells following p53 knockdown by CRISPR [48].

[3] = test system: A2780 cells; assay: Growth inhibition, MTT assay, A2780 cells; format: cell-based, human; conditions: 72 h exposure; for IC50: mean ± SEM
Description: as §1

[4] = test system: A2780cis cells; assay: Growth inhibition, MTT assay, cisplatin-resistant A2780cis cells; format: cell-based, human; conditions: for IC50: mean ± SEM; for Fold resistance A2780cis/A2780 ratio: ratio A2780cis IC50/A2780 IC50
Description: as §1

[5] = test system: PC3 cells; assay: Growth inhibition, MTT assay, PC3 cells; format: cell-based, human; conditions: 72 h exposure; for IC50: mean ± SEM
Description: as §1

[6] = test system: L-540 cells; assay: Growth inhibition, MTS assay, L-540 cells; format: cell-based, human; conditions: 72 h exposure; for IC50: mean ± SEM
Description: as §1

[7] = test system: A2780 CRISPR p53 KO cells; assay: MTT assay in A2780 clone with p53 knocked out by CRISPR/Cas9; format: cell-based, human; conditions: mean ± SEM
Description: as §1

[8] = Stability by UV-Vis spectra in DMSO over 24 hours at 37°C; format: physicochemical; conditions: DMSO solution
Description: Electronic spectra were recorded on each complex freshly prepared in DMSO solution at room temperature. Then, their electronic spectra were monitored over 24 hours at 37°C. The resulting UV-Vis absorption spectra of compound 1, 2 and 3 are shown in Supplementary Figure S4A–S4C.

[9] = test system: A2780 CRISPR Control cells (WT-p53); assay: MTT assay in A2780 clone transfected with CRISPR control plasmid; format: cell-based, human; conditions: mean ± SEM
Description: as §1

[10] = test system: NSCLC cell lines (H460, A549, H226, H838, H157, H1975, H2122, SKLU1, H1299); assay: Cytotoxicity in a panel of NSCLC cell lines, MTT assay; format: cell-based; conditions: all NSCLC cell lines
Description: as §1

[11] = test system: A2780, A2780cis, MCF-7, PC3, L-540 cells; assay: Caspase 3 activation, FLICA reagent, flow cytometry; format: cell-based, human; conditions: IC75, 0, 24 and 48 h
Description: (§2) PC3 (2.5 × 10^4), MCF-7 (5.0 × 10^4), A2780 and A2780cis (5.0 × 10^4), and L-540 cells (2.0 × 10^5/mL) were incubated in six-well plates with compound 1 (IC75) (Figure 1) for 72 h. Annexin-V binding (Becton-Dickinson [BD] Pharmingen, San Jose, CA) together with propidium iodide (PI) staining was detected in tumor cells by flow cytometry, as described. Caspase 3 and 9 activation was evaluated using the fluorochrome inhibitors of caspases (FLICA) Caspa-TagTM caspase-3/7 (FAM-DEVD-FMK) and caspase 9 (FAM-LETD) (Chemicon International, Milan, Italy). Briefly, cells were treated with compound 1 (IC75), then harvested, washed and resuspended in warmed complete medium supplemented with FLICA for 1 h and then immediately analyzed by flow cytometry. DNA fragmentation was assessed using the Apo-Direct kit (Becton-Dickinson Pharmigen, CA, USA) according to manufacturer's instructions. […] Red fluorescence was immediately analyzed by flow cytometry. Viable cells were identified according to their forward and right-angle scattering, electronically gated and analyzed on a FACScan flow cytometer (BD), using CellQuest software (BD). […] After 72 h, ROS formation and viable cells number were evaluated by flow cytometry and trypan blue dye exclusion assay, respectively. […]

[12] = test system: tumor cells; assay: Cytochrome-c release, flow cytometry; format: cell-based, human; conditions: IC75, 24 h
[13] = test system: A2780, A2780cis, MCF-7, PC3, L-540 cells; assay: DNA fragmentation, Apo-Direct, flow cytometry; format: cell-based, human; conditions: IC75, 72 h
Description: as §2

[14] = test system: human Mesenchymal stromal cells (MSCs); assay: Proliferation of normal Mesenchymal stromal cells, MTT assay; format: cell-based; conditions: 72 h
Description: Bone Marrow (BM) derived human Mesenchymal Stromal Cells (MSCs) were from Lonza (Lonza, Verviers, Belgium). MSCs were maintained in MSGM bullet kit (Lonza) and experiments were performed in DMEM medium (Cambrex Bio Science, Milano, Italy) supplemented with 10% FCS. To evaluate effects of compound 1, MSCs (5.0 × 10^3) were seeded in 96-well flat-bottomed microplates (100 μL) and incubated for 24 h (to allow cell adhesion) before drug testing. The medium was then removed and replaced with fresh medium containing compound 1 to be tested at increasing concentrations (from 0.1 to 1 μM) at 37°C for 72 h. Each treatment was performed in triplicate. Cell proliferation was assayed using the MTT assay.

[15] = test system: tumor cells; assay: Mitochondrial membrane permeabilization, CMXRos, flow cytometry; format: cell-based, human; conditions: IC75, 24 h
Description: as §2

[16] = test system: A2780, A2780cis, MCF-7, PC3, L-540 cells; assay: Apoptosis, Annexin V/PI double staining, flow cytometry; format: cell-based, human; conditions: IC75, 72 h
Description: as §2

[17] = test system: tumor cells; assay: Cell cycle progression; format: cell-based; conditions: data not shown
[18] = test system: tumor cells; assay: Mitochondrial ROS, MitoSox, flow cytometry; format: cell-based, human; conditions: IC75, 72 h
Description: as §2

[19] = test system: tumor cells; assay: Caspase 9 activation, FLICA reagent, flow cytometry; format: cell-based, human; conditions: IC75, 24 h
Description: as §2

Compound: cis-[Pt(NH3)2Cl2] [Cisplatin]
- fold cisplatin resistance of 2780CP cells [1]: 20 fold
- IC50 ([2]; 72 h exposure, MTT): 22200 ± 200 nM
- IC50 [3]: 1500 ± 100 nM
- IC50 ([4]; 72 h exposure, MTT): 10400 ± 900 nM
- Fold resistance A2780cis/A2780 ratio [4]: 6.93
- Fold resistance A2780cis/A2780 ratio ([4]; listed as cisplatin): about 7
- IC50 [5]: 3300 ± 300 nM
- IC50 [6]: 2500 ± 100 nM

Compound: Cc1ccc2[n+](c1)[Au-]1([S]C(N(Cc3ccccc3)Cc3ccccc3)=[S+]1)[n+]1cc(C)ccc1-2.[Cl-].[Cl-] [Compound 6, [Au(5,5′-Me2BPY)(DBTC)]Cl2]
- IC50 ([2]; 72 h exposure, MTT): 18000 ± 1620 nM
- IC50 [3]: 6350 ± 60 nM
- IC50 ([4]; 72 h exposure, MTT): 15700 ± 1410 nM
- Fold resistance A2780cis/A2780 ratio [4]: 2.47
- IC50 [5]: 11600 ± 1040 nM
- IC50 [6]: 6500 ± 60 nM

Compound: S=C([S-])N(Cc1ccccc1)Cc1ccccc1.[Au+3].[Cl-].[Cl-].c1ccc(-c2ccccn2)nc1 [Compound 3, [Au(BPY)(DBTC)]Cl2]
- IC50 ([2]; 72 h exposure, MTT): 23000 ± 2070 nM
- IC50 [7]: 1130 ± 390 nM
- stability by UV spectra [8]: confirm the stability under physiological temperature
- IC50 [3]: 4660 ± 130 nM
- IC50 ([4]; 72 h exposure, MTT): 14300 ± 1120 nM
- Fold resistance A2780cis/A2780 ratio [4]: 3.07
- IC50 [9]: 870 ± 110 nM
- IC50 [5]: 11200 ± 1000 nM
- IC50 [6]: 12000 ± 1080 nM

Compound: CCN(CC)C1=[S+][Au-]2([S]1)[n+]1cc(C)ccc1-c1ccc(C)c[n+]12.Cl.Cl [Compound 5, [Au(5,5′-Me2BPY)(DETC)]Cl2]
- IC50 ([2]; 72 h exposure, MTT): 290 ± 30 nM
- IC50 [3]: 590 ± 50 nM
- IC50 ([4]; 72 h exposure, MTT): 230 ± 20 nM
- IC50 [5]: 860 ± 80 nM
- IC50 [6]: 2900 ± 260 nM

Compound: Cc1ccc2[n+](c1)[Au-]1([S]C(N(C)C)=[S+]1)[n+]1cc(C)ccc1-2.[Cl-].[Cl-] [Compound 4, [Au(5,5′-Me2BPY)(DMTC)]Cl2]
- IC50 ([2]; 72 h exposure, MTT): 280 ± 20 nM
- IC50 [7]: 83 ± 3 nM
- fold greater potency than compounds 3, 6 and 9 [10]: at least 10 fold
- IC50 [3]: 280 ± 30 nM
- IC50 ([4]; 72 h exposure, MTT): 170 ± 10 nM
- IC50 [9]: 87 ± 3 nM
- IC50 [5]: 590 ± 50 nM
- IC50 [6]: 2700 ± 220 nM

Compound: CN(C)C1=[S+][Au-]2([S]1)[n+]1ccccc1-c1cccc[n+]12.[Cl-].[Cl-] [Compound 1, [Au(BPY)(DMTC)]Cl2]
- caspase 3 activation [11]: induced a time-dependent activation of caspase 3
- cytochrome-c release from the mitochondria [12]: cytochrome-c (Cyt-c) release
- DNA fragmentation (Apo-Direct) [13]: Apoptosis induction was confirmed by DNA fragmentation
- IC75 MCF-7 ([2]; 72 h exposure, MTT): 510 ± 50 nM
- IC90 ([2]; 72 h exposure, MTT): 740 ± 80 nM
- IC50 ([2]; 72 h exposure, MTT): 270 ± 20 nM
- fold more active than cisplatin in inhibiting cell proliferation ([2]; MCF-7 cells): ~80 fold
- IC50 [14]: 960 nM
- stability by UV spectra [8]: confirm the stability under physiological temperature
- mitochondrial membrane permeabilization [15]: promoted mitochondrial membrane permeabilization
- IC75 A2780 [3]: 450 ± 40 nM
- IC90 [3]: 600 ± 50 nM
- IC50 [3]: 180 ± 20 nM
- IC75 A2780cis ([4]; 72 h exposure, MTT): 430 ± 40 nM
- IC90 ([4]; 72 h exposure, MTT): 560 ± 60 nM
- IC50 ([4]; 72 h exposure, MTT): 170 ± 10 nM
- fold more active than cisplatin in inhibiting cell proliferation ([4]; A2780cis cells): about 60 fold
- apoptosis (Annexin-V/PI) [16]: induced apoptosis in the cell lines tested
- cell cycle progression [17]: only slightly affected
- IC75 PC3 [5]: 730 ± 70 nM
- IC90 [5]: 910 ± 110 nM
- IC50 [5]: 420 ± 40 nM
- mitochondrial ROS levels [18]: increased mitochondrial ROS levels
- IC75 L-540 [6]: 3500 ± 320 nM
- IC90 [6]: 4200 ± 390 nM
- IC50 [6]: 2680 ± 240 nM
- caspase 9 activation [19]: induced activation of caspase 9

Compound: Cc1cccc2[n+]1[Au-]1([S]C(N(C)C)=[S+]1)[n+]1c(C)cccc1-2.[Cl-].[Cl-] [Compound 7, [Au(6,6′-Me2BPY)(DMTC)]Cl2]
- IC50 ([2]; 72 h exposure, MTT): 350 ± 30 nM
- fold greater potency than compounds 3, 6 and 9 [10]: at least 10 fold
- IC50 [3]: 270 ± 20 nM
- IC50 ([4]; 72 h exposure, MTT): 230 ± 20 nM
- IC50 [5]: 770 ± 70 nM
- IC50 [6]: 3600 ± 320 nM

Compound: CCN(CC)C1=[S+][Au-]2([S]1)[n+]1c(C)cccc1-c1cccc(C)[n+]12.Cl.Cl [Compound 8, [Au(6,6′-Me2BPY)(DETC)]Cl2]
- IC50 ([2]; 72 h exposure, MTT): 470 ± 40 nM
- IC50 [3]: 730 ± 60 nM
- IC50 ([4]; 72 h exposure, MTT): 450 ± 30 nM
- IC50 [5]: 1600 ± 140 nM
- IC50 [6]: 6200 ± 560 nM

Compound: CCN(CC)C(=S)[S-].[Au+3].[Cl-].[Cl-].c1ccc(-c2ccccn2)nc1 [Compound 2, [Au(BPY)(DETC)]Cl2]
- IC50 ([2]; 72 h exposure, MTT): 270 ± 20 nM
- stability by UV spectra [8]: confirm the stability under physiological temperature
- IC50 [3]: 240 ± 20 nM
- IC50 ([4]; 72 h exposure, MTT): 180 ± 10 nM
- IC50 [5]: 700 ± 60 nM
- IC50 [6]: 2800 ± 250 nM

Compound: Cc1cccc2[n+]1[Au-]1([S]C(N(Cc3ccccc3)Cc3ccccc3)=[S+]1)[n+]1c(C)cccc1-2.[Cl-].[Cl-] [Compound 9, [Au(6,6′-Me2BPY)(DBTC)]Cl2]
- IC50 ([2]; 72 h exposure, MTT): 31000 ± 2790 nM
- IC50 [3]: 6700 ± 600 nM
- IC50 ([4]; 72 h exposure, MTT): 16000 ± 1440 nM
- Fold resistance A2780cis/A2780 ratio [4]: 2.39
- IC50 [5]: 11500 ± 1030 nM
- IC50 [6]: 35800 ± 3220 nM
